Results as given in patent US11873521B2, “Steviol glycoside and production method therefor, and sweetener composition containing same” (SUNTORY HOLDINGS LIMITED, priority 2017, dated 2024).
Entries after “also recorded” stand apart in the source; their conditions may differ.

Experiments:
[1] = Evaluation of flavors of novel steviol glycosides in powder forms; type: in vivo; details: only β-form
Description: Flavors of Novel steviol glycosides 1 and 2 in powder forms were evaluated. Specifically, Compounds 15 (corresponding to Novel steviol glycoside 1) and 17 (corresponding to Novel steviol glycoside 2) obtained by chemical syntheses were subjected to high performance liquid chromatography (HPLC) to isolate only the β-form, which was made into a powder form and subjected to flavor evaluation. Panelists trained about sensory attributes of sweeteners members: Suntory Beverage and Food Ltd.) evaluated.

[2] = Solubility in water; type: physicochemical
[3] = samples adjusted to final Brix of 2 in terms of sucrose; cited from earlier work
[4] = background art; cited from earlier work

Compound | undesirable flavor such as bitterness [1] | sweetness level assumed for preparing beverage samples [3] | sweetness relative to sugar [4] | further results
C=C1C[C@@]23CCC4[C@](C)(C(=O)O[C@@H]5OC(CO)[C@@H](O)[C@H](O)C5O[C@@H]5OC(C)[C@H](O)[C@H](O)C5O)CCC[C@@]4(C)[C@@H]2CCC1(O[C@@H]1OC(CO)[C@@H](O)[C@H](O[C@@H]2OC(CO)[C@@H](O)[C@H](O)C2O)C1O[C@@H]1OC(C)[C@H](O)[C@H](O)C1O)C3 (some centres unmarked) [Compound 15] | less undesirable flavor such as bitterness | – | – | Presence of sweetness ([1]; listed as Novel steviol glycoside 1): had sweetness; also recorded: Present; solubility in water [2]: did not dissolve in water sufficiently
C=C1C[C@@]23CCC4[C@](C)(C(=O)O[C@@H]5OC(CO)[C@@H](O)[C@H](O[C@@H]6OC(CO)[C@@H](O)[C@H](O)C6O)C5O[C@@H]5OC(C)[C@H](O)[C@H](O)C5O)CCC[C@@]4(C)[C@@H]2CCC1(O[C@@H]1OC(CO)[C@@H](O)[C@H](O[C@@H]2OC(CO)[C@@H](O)[C@H](O)C2O)C1O[C@@H]1OC(C)[C@H](O)[C@H](O)C1O)C3 (some centres unmarked) [Compound 17] | less undesirable flavor such as bitterness | – | – | Presence of sweetness ([1]; listed as Novel steviol glycoside 2): had sweetness; also recorded: Present; Flavor characteristics ([1]; listed as Novel steviol glycoside 2, bitterness): No bitterness; Flavor characteristics ([1]; listed as Novel steviol glycoside 2, overall flavor): Flavor resembled the mixture
C=C1C[C@@]23CC[C@H]4[C@@](C)(CCC[C@@]4(C)C(=O)O[C@@H]4O[C@H](CO)[C@@H](O)[C@H](O)[C@H]4O)[C@@H]2CC[C@]1(O[C@@H]1O[C@H](CO)[C@@H](O)[C@H](O[C@@H]2O[C@H](CO)[C@@H](O)[C@H](O)[C@H]2O)[C@H]1O[C@@H]1O[C@H](CO)[C@@H](O)[C@H](O)[C@H]1O)C3 [Reb.A, rebaudioside A] | – | 300 | 350-450 times the sweetness of sugar | –
C=C1C[C@@]23CC[C@H]4[C@@](C)(CCC[C@@]4(C)C(=O)O[C@@H]4O[C@H](CO)[C@@H](O)[C@H](O)[C@H]4O[C@@H]4O[C@H](CO)[C@@H](O)[C@H](O)[C@H]4O)[C@@H]2CC[C@]1(O[C@@H]1O[C@H](CO)[C@@H](O)[C@H](O[C@@H]2O[C@H](CO)[C@@H](O)[C@H](O)[C@H]2O)[C@H]1O[C@@H]1O[C@H](CO)[C@@H](O)[C@H](O)[C@H]1O)C3 [Reb.D, rebaudioside D] | – | 250 | – | –
C=C1C[C@@]23CC[C@H]4[C@@](C)(CCC[C@@]4(C)C(=O)O[C@@H]4O[C@H](CO)[C@@H](O)[C@H](O)[C@H]4O)[C@@H]2CC[C@]1(O[C@@H]1O[C@H](CO)[C@@H](O)[C@H](O)[C@H]1O[C@@H]1O[C@H](CO)[C@@H](O)[C@H](O)[C@H]1O)C3 [Stevioside] | – | – | 250-300 times the sweetness of sugar | –
